From patent US9884049B2, “Microbicidal composition comprising an octoxynol and a quinolizidine alkaloid compound or a source thereof” (NOVICOL INTERNATIONAL HOLDING INC., priority 2014, dated 2018)

Key:
HIV-1ADA-M = assay: Anti-HIV activity, MAGI assay in TZM-b1 cells; settings: for EC50: HIV-1ADA-M
TZM-b1 cells [1] = assay: Cytotoxicity, CyQuant assay
TZM-b1 cells [2] = assay: Cytotoxicity, XTT assay
HIV-1MN = assay: Anti-HIV activity, MAGI assay in TZM-b1 cells; settings: for EC50: HIV-1MN
HIV = settings: nearly 1,000 sex workers in Africa, versus placebo; cited from earlier work
[3] = Wash (washed four hours after, then 72 h)

Compound	TI (CC50/EC50) (HIV-1ADA-M; CyQuant/HIV-1ADA-M, No wash)	TI (CC50/EC50) (HIV-1ADA-M; CyQuant/HIV-1ADA-M, Wash)	EC50 (HIV-1ADA-M; No wash)	EC50 (HIV-1ADA-M; Wash)	TI (CC50/EC50) (HIV-1ADA-M; XTT/HIV-1ADA-M, No wash)	TI (CC50/EC50) (HIV-1ADA-M; XTT/HIV-1ADA-M, Wash)	CC50 (TZM-b1 cells [1]; No wash (72 h))	CC50 (TZM-b1 cells [1]; [3])	CC50 (TZM-b1 cells [2]; No wash)	CC50 (TZM-b1 cells [2]; Wash)	TI (CC50/EC50) (HIV-1MN; CyQuant/HIV-1MN, No wash)	TI (CC50/EC50) (HIV-1MN; CyQuant/HIV-1MN, Wash)	EC50 (HIV-1MN; No wash)	EC50 (HIV-1MN; Wash)	TI (CC50/EC50) (HIV-1MN; XTT/HIV-1MN, No wash)	TI (CC50/EC50) (HIV-1MN; XTT/HIV-1MN, Wash)	HIV infection rate, higher than with placebo (HIV)
O=C1CCC[C@@H]2[C@H]3CCCN4CCC[C@@H](CN12)[C@@H]34 [Matrine, matrine]	3.01	0.89	0.2075 % (w/v)	0.3948 % (w/v)	1.50	2.80	0.6240 % (w/v)	0.3530 % (w/v)	0.3122 % (w/v)	1.1040 % (w/v)	8.91	7.06	0.0700 % (w/v)	0.0500 % (w/v)	4.46	22.08	–
nonoxynol-9	–	–	–	–	–	–	–	–	–	–	–	–	–	–	–	–	about 50%
IGEPAL® CA-630	9.73	1.38	0.00037 % (w/v)	0.0035 % (w/v)	0.43	2.05	0.0036 % (w/v)	0.0048 % (w/v)	0.0002 % (w/v)	0.0072 % (w/v)	2.95	1.55	0.0012 % (w/v)	0.0031 % (w/v)	0.13	2.31	–
